Experimental data: US6790869B2, “Resveratrol analogs for prevention of disease” (Rutgers, The State University of New Jersey, priority 1999, dated 2004)
Like-named read-outs stand apart in the source and are kept apart here.

Tests used:
[1] = system: W138 human diploid fibroblasts; assay: Cell proliferation assay, viable cells counted by trypan blue dye exclusion; assay type: cell-based; parameters: key to Growth Rate in Cells Following Exposure to Resveratrol Analogs, W138 Cells: +: >60% growth inhibition; —: no effect or only slight inhibition observed; settings: for Growth Rate in Cells Following Exposure to Resveratrol Analogs, W138 Cells: at the concentration in parentheses after the analog, 5 days in culture
Protocol: (§1) Initial tests examined the potential cancer preventive activity of the analogs. Resveratrol and its analogs were evaluated in W138 and SV40 transformed W138VA cells and in preneoplastic 184-B5/HER and neoplastic SK-BR-3 human mammary epithelial cells. Cell proliferation, apoptosis, and gene expression studies were conducted using standard methodologies.
(§2) W138 human diploid fibroblasts and cancerous SV40-transformed W138 cells (W138VA) were used in a cell proliferation assay. Growth rate and viability of these cells was determined following addition of each analog. Doses tested ranged from 50 ng to 300 μg per ml or 1 μM to 100 μM concentrations in culture media. Cell cultures were grown for 5 days in the presence of the various doses of analogs. Growth rate was measured by counting viable cells using the trypan blue dye exclusion method. Resveratrol inhibited cell growth at low concentrations, less than 10 μM. […] MR-1 was not active as an inhibitor of cell growth even at doses as high as 100 μM.

[2] = system: SV40-transformed W138 cells (W138VA); assay: as above; assay type: cell-based, human; parameters: key to Growth Rate in Cells Following Exposure to Resveratrol Analogs, W138VA Cells: +: >60% growth inhibition; —: no effect or only slight inhibition observed; settings: for Growth Rate in Cells Following Exposure to Resveratrol Analogs, W138VA Cells: at the concentration in parentheses after the analog, 5 days in culture
Protocol: as §1, §2

[3] = system: W138 and W138VA cells; assay: Cell proliferation assay, result not separated by cell line; assay type: cell-based, human; settings: for effective concentration for growth inhibition: value in parentheses in Table 1, W138 / W138VA cells, 5 days
Protocol: as §1, §2

[4] = system: W138 cells; assay: Morphological changes in cells; assay type: cell-based, human; settings: normal W138 cells
Description: (§3) In addition to inhibition of cell growth, treatment of W138 and W138VA cells with analogs led to morphological changes in the cells. Treatment of W138 cells with resveratrol and its analogs R-1 and R-3 led to elongation of normal W138 cells. Methoxy analogs such as MR-0 and MR-3 caused the flattening of W138 cells.

[5] = system: neutral β-galactosidase activity in W138 cells; assay: Neutral β-galactosidase staining (senescence marker); assay type: cell-based, human; settings: accompanying flattening
Description: as §3

[6] = system: 184-B5/HER cells; assay: Growth inhibition in 184-B5/HER cells; assay type: cell-based; settings: Homo sapiens
Protocol: as §1
(§4) Resveratrol and its analogs were also tested in 184-B5/HER cells.

[7] = system: 184-B5/HER cells; assay: Cell cycle analysis; assay type: cell-based, human
Protocol: as §4

[8] = system: 184-B5/HER cells; assay: Apoptosis assay, fluorescent labeling of fragmented DNA; assay type: cell-based, human
Description: The effect of the analogs on apoptosis was also examined. Apoptosis is characterized by nuclear DNA fragmentation that is mediated through a variety of signal transduction pathways. An assay was used that relies on fluorescent labeling of fragmented DNA.

[9] = system: 184-B5/HER cells; assay: Anchorage-dependent colony formation assay; assay type: cell-based; settings: Homo sapiens
Description: Cell colony formation was also examined in 184-B5/HER cells. […] Resveratrol, MR-0 and MR-2 produced approximately 25-40% inhibition in the anchorage-dependent colony formation assay. MR-3, however, produced almost a 80% inhibition of colony formation.

[10] = system: human glyceraldehyde-3-phosphate dehydrogenase (HG3PDH) expression; assay: Targeted gene assay by RT-PCR; assay type: cell-based; settings: W138 and W138VA cells, serum-stimulated from G0
Protocol: (§5) Targeted gene assay was then performed using RT-PCR. Both normal (W138) and cancerous (W138VA) cells at resting phase (G0) were treated with 10-15% fetal bovine serum to initiate growth stimulation. Cells were then harvested at various time points during cell cycle progression. Total RNA was prepared from these cells according to standard RT-PCR methods. Paired gene specific primers were prepared and used including human glyceraldehyde-3-phosphate dehydrogenase HG3PDH), c-fos, c-myc, ornithine decarboxylase (ODC), proliferating cell nuclear antigen (PCNA), thymidine kinase (TK), cyclooxygenase 2 (COX2), BRCA1, BRCA2, p53, APC, MCC, pRb, cyclooxygenase 1 (COX1), bc12, and Bax. […] Expression of c-fos and c-myc, an early G1 event in normal W138 cells, were both deregulated in transformed W138VA cells. […] Similarly, treatment of cells, both normal and transformed, with either resveratrol or MR-3 had no effect on expression of ODC, PCNA, or TK genes (all cell cycle dependent genes).

[11] = system: c-fos expression; assay: Targeted gene assay by RT-PCR; assay type: cell-based, human; settings: W138 and W138VA cells, serum-stimulated from G0
Protocol: as §5

[12] = system: c-myc expression; assay: Targeted gene assay by RT-PCR; assay type: cell-based, human; settings: W138 and W138VA cells, serum-stimulated from G0
Protocol: as §5

[13] = system: cyclooxygenase 2 (COX2) expression; assay: Targeted gene assay by RT-PCR; assay type: cell-based, human
Protocol: as §5

[14] = system: ornithine decarboxylase (ODC) gene expression; assay: Targeted gene assay by RT-PCR; assay type: cell-based, human; settings: both normal and transformed cells
Protocol: as §5

[15] = system: proliferating cell nuclear antigen (PCNA) gene expression; assay: Targeted gene assay by RT-PCR; assay type: cell-based, human; settings: both normal and transformed cells
Protocol: as §5

[16] = system: thymidine kinase (TK) gene expression; assay: Targeted gene assay by RT-PCR; assay type: cell-based, human; settings: both normal and transformed cells
Protocol: as §5

[17] = system: BRCA1 gene expression; assay: Targeted gene assay by RT-PCR; assay type: cell-based, human; settings: for effect on expression of BRCA1 gene: human cells, all time points examined
Protocol: as §5
(§6) Both BRCA1 and BRCA2 are breast cancer genes that together appear to be responsible for more than 60% of total hereditary breast cancers. Therefore, resveratrol and its analogs appear to modulate the breast cancer genes.

[18] = system: BRCA2 gene expression; assay: Targeted gene assay by RT-PCR; assay type: cell-based, human; settings: for effect on expression of BRCA2 gene: human cells, all time points examined
Protocol: as §5, §6

[19] = system: oncogene expression preneoplastic breast epithelial cells; assay: In vivo tumor inhibition in an orthotransplant model; settings: mice, AIN-76A diet with 400 ppm
Protocol: The in vivo tumor inhibitory effects of MR-3 were tested in an orthotransplant model. Mice were transplanted with an oncogene expression preneoplastic breast epithelial cells. Mice were then divided into groups with the control group fed AIN-76A diet alone. Another group of mice was fed AIN-76A diet supplemented with 400 ppm MR-3.

[20] = read-out: concentration that inhibited growth by 50% (IC50), 184-B5/HER cells
[21] = 184-B5/HER cells, continuous treatment with 4 μM, read-out: inhibition of colony formation

Row | SMILES | Growth Rate in Cells Following Exposure to Resveratrol Analogs, W138 Cells [1] | Growth Rate in Cells Following Exposure to Resveratrol Analogs, W138VA Cells [2] | effective concentration for growth inhibition [3] | morphological change of cells [4] | neutral β-galactosidase activity (staining) [5] | cell cycle effect relative to solvent-treated control cultures [7] | induction of apoptosis versus solvent-treated control cells [8] | effect on expression of HG3PDH [10] | effect on expression of c-fos [11] | effect on expression of c-myc [12] | effect on expression of ODC gene [14] | effect on expression of PCNA gene [15] | effect on expression of TK gene [16] | effect on expression of BRCA1 gene [17] | effect on expression of BRCA2 gene [18] | IC50 [6, 20] [µM] | inhibition at 4 µM [9, 21] [%] | also measured
1 | COc1cc(C=Cc2ccccc2)cc(OC)c1 [MR-1, 3,5-dimethoxystilbene] | —^4 | — | MR1 (100 μM) |  |  |  |  |  |  |  |  |  |  |  |  |  |  | activity as an inhibitor of cell growth ([3]; doses as high as 100 μM): not active
2 | COc1ccc(C=Cc2cc(OC)c(OC)c(OC)c2)cc1 [MR-3, 3,4,4′,5-tetramethoxystilbene] | — | + (>60% growth inhibition) | MR3 (1 μM) | flattening | increase in neutral β-galactosidase activity | progressive arrest of cell in the G2/M phase | no effect | did not affect the expression | did not significantly affect the expression | did not significantly affect the expression | no effect | no effect | no effect | completely abolished expression | completely abolished expression |  |  | effect on growth ([1]; W138 cells, 1 μM): no effect; effect on proliferation ([2]; W138VA cells, 1 μM): completely blocked proliferation; rank in inhibiting cell growth among the methylated analogs [3]: most effective; IC50 ([6]; 184B5, read-out: concentration that inhibited growth by 50% (IC50)): 1 µM; rank in cell cycle arrest [7]: most effective compound; inhibition at 4 µM ([9]; 184B5, read-out: inhibition of colony formation): ~80%; effect on expression of COX2 ([13]; W138VA cells): stimulated the expression; effect on expression of COX2 ([13]; W138 cells): not in W138 cells; potency in inhibiting expression of BRCA1 compared with resveratrol ([17]; at equal doses): more potent than resveratrol; potency in inhibiting expression of BRCA2 compared with resveratrol ([18]; at equal doses): more potent than resveratrol; weight gains compared with control group ([19]; 12 weeks): comparable; tumor incidence ([19]; 12 weeks continuous feeding, control group 100%): 20%
3 | COc1cc(C=Cc2cc(OC)c(OC)c(OC)c2)cc(OC)c1 [MR-5, 3,3′,4,5,5′-pentamethoxystilbene] | + (>60% growth inhibition) | + (>60% growth inhibition) | MR5 (100 μM) |  |  |  |  |  |  |  |  |  |  |  |  |  |  | 
4 | Oc1ccc(C=Cc2cc(O)cc(O)c2)cc1 [Resveratrol, 3,4′,5-trihydroxystilbene] | +^2 (>60% growth inhibition) | + (>60% growth inhibition) | R0 (10 μM)^1 | elongation |  |  | induced apoptosis to a significantly greater extent than solvent-treated control cells | did not affect the expression | did not significantly affect the expression | did not significantly affect the expression | no effect | no effect | no effect | completely abolished expression | completely abolished expression | 10.5 | 25 to 40 | concentration at which cell growth was inhibited ([3]; 5 days in culture): less than 10 μM
5 | COc1ccc(C=Cc2cc(OC)cc(OC)c2)cc1 [MR-0, 3,4′,5-trimethoxystilbene] | + (>60% growth inhibition) | + (>60% growth inhibition) | MR0 (100 μM) | flattening | increase in neutral β-galactosidase activity | progressive arrest of cell in the G2/M phase | induced apoptosis to a significantly greater extent than solvent-treated control cells |  |  |  |  |  |  |  |  | 10.5 | 25 to 40 | ability to inhibit cell growth compared with resveratrol ([1]; W138 cells): less effective than resveratrol; ability to inhibit cell growth compared with resveratrol ([2]; W138VA cells): did not significantly affect
